target: T1, human neutrophil elastase (HNE) (Homo sapiens, UniProt P08246); experiment: HNE Ki of CE compounds, tested as described in WO 96/16080; format: biochemical; conditions: read-out: HNE Ki
T1 sequence (P08246 30-267): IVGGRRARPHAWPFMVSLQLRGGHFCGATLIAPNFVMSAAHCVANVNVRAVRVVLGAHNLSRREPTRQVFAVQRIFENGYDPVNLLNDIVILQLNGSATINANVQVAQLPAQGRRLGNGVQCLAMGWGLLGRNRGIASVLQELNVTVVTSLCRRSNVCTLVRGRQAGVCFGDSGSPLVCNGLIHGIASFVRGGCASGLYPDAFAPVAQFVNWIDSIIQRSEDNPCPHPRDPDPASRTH

Ki	Compound
78.5 nM	2-Oxo-5-methyl-1,4-(1-thiophenodiazepine)-N-[1-(2-[5-(3-methylbenzyl)-1,3,4-oxadiazolyl]carbonyl)-2-(S)-methylpropyl]acetamide [CE2244]
270 nM	3-(S)-[(4-Morpholino carbonyl-butanoyl)amino]-ε-lactam-N-[1-(2-[5-(3-methylbenzyl)-1,3,4-oxadiazolyl]carbonyl)-2-(R,S)-methylpropyl]acetamide [CE2091]
0.37 nM	Cc1cc(C)cc(Cc2nc(C(=O)[C@@H](NC(=O)[C@@H]3CCCN3C(=O)[C@@H](NC(=O)OCc3ccccc3)C(C)C)C(C)C)no2)c1 [CE2052, (Benzyloxycarbonyl)-L-valyl-N-[1-(3-[5-(3,5-dimethylbenzyl)-1,2,4-oxadiazolyl)carbonyl)-2-(S)-methylpropyl]-L-prolinamide]
0.41 nM	COc1cc(Cc2nc(C(=O)[C@@H](NC(=O)[C@@H]3CCCN3C(=O)[C@@H](NC(=O)OCc3ccccc3)C(C)C)C(C)C)no2)cc(OC)c1 [CE2053, (Benzyloxycarbonyl)-L-valyl-N-[1-(3-[5-(3,5-dimethoxybenzyl)-1,2,4-oxadiazolyl]carbonyl)-2-(S)-methylpropyl]-L-prolinamide]
0.29 nM	CC(C)[C@H](NC(=O)[C@@H]1CCCN1C(=O)[C@@H](NC(=O)OCc1ccccc1)C(C)C)C(=O)c1noc(Cc2cc(C(F)(F)F)cc(C(F)(F)F)c2)n1 [CE2054, (Benzyloxycarbonyl)-L-valyl-N-[1-(3-[5-(3,5-ditrifluoromethylbenzyl)-1,2,4-oxadiazolyl]carbonyl)-2-(S)-methylpropyl]-L-prolinamide]
0.375 nM	CC(C)[C@H](NC(=O)[C@@H]1CCCN1C(=O)[C@@H](NC(=O)OCc1ccccc1)C(C)C)C(=O)c1noc(C(c2ccccc2)c2ccccc2)n1 [CE2057]
0.564 nM	CC(C)[C@H](NC(=O)[C@@H]1CCCN1C(=O)[C@@H](NC(=O)OCc1ccccc1)C(C)C)C(=O)c1noc(Cc2ccc(-c3ccccc3)cc2)n1 [CE2058, (Benzyloxycarbonyl)-L-valyl-N-[1-(3-[5-(4-phenylbenzyl)-1,2,4-oxadiazolyl]carbonyl)-2-(S)-methylpropyl]-L-prolinamide]
0.3 nM	CC(C)[C@H](NC(=O)[C@@H]1CCCN1C(=O)[C@@H](NC(=O)OCc1ccccc1)C(C)C)C(=O)c1noc(Cc2cccc(-c3ccccc3)c2)n1 [CE2062, (Benzyloxycarbonyl)-L-valyl-N-[1-(3-[5{3-phenylbenzyl)-1,2,4-oxadiazolyl]carbonyl)-2-(S)-methylpropyl]-L-prolinamide]
0.98 nM	CC(C)[C@H](NC(=O)[C@@H]1CCCN1C(=O)[C@@H](NC(=O)OCc1ccccc1)C(C)C)C(=O)c1noc(Cc2cccc(Oc3ccccc3)c2)n1 [CE2066, (Benzyloxycarbonyl)-L-valyl-N-[1-(3-[5-(3-phenoxybenzyl)-1,2,4-oxadiazolyl]carbonyl)-2-(S)-methylpropyl]-L-prolinamide]
4.4 nM	CC(C)[C@H](NC(=O)[C@@H]1CCCN1C(=O)[C@@H](NC(=O)OCc1ccccc1)C(C)C)C(=O)c1noc(CC2CCCCC2)n1 [CE2069]
0.235 nM	CC(C)[C@H](NC(=O)[C@@H]1CCCN1C(=O)[C@@H](NC(=O)OCc1ccccc1)C(C)C)C(=O)c1noc(C(C)(C)c2cccc(C(F)(F)F)c2)n1 [CE2073, (Benzyloxycarbonyl)-L-valyl-N-[1-(3-[5-(α,α-dimethyl-3-trifluoromethylbenzyl)-1,2,4-oxadiazolyl]carbonyl)-2-(S)-methylpropyl]-L-prolinamide]
1 nM	Cc1nnc(C(=O)[C@@H](NC(=O)[C@@H]2CCCN2C(=O)[C@@H](NC(=O)OCc2ccccc2)C(C)C)C(C)C)o1 [CE2074]

Compound	Ki
3-(S)-Amino-ε-lactam-N-[1-(2-[5-(3-methylbenzyl)-1,3,4-oxadiazolyl]carbonyl)-2-(S)-methylpropyl]acetamide trifluoroacetic acid salt [CE2080]	62 nM
